Experimental data published in patent publication US20250091994A1, “RAS/RAF BINDING INHIBITOR COMPOUND” (NATIONAL UNIVERSITY CORPORATION KOBE UNIVERSITY, priority 2021, published 2025).
Where two headings read alike, the source gives them in different places.

Columns and labels:
[1] = test system: promyelocytic leukemia cells HL60 (N-RasQ61L); experiment: Cell growth inhibition, suspension cells HL60; format: cell-based; conditions: Homo sapiens, HL-60, 72 hours; for inhibition at 3.3 µM: read-out: HL-60 (NRasQ61L) % inhibition at 3.3 μM (**); for inhibition at 1.1 µM: read-out: HL-60 (NRasQ61L) % inhibition at 1.1 μM (*); for inhibition at 3.2 µM: read-out: HL-60 (NRasQ61L) % inhibition at 3.2 μM (****); for inhibition at 10 µM: read-out: HL-60 (NRasQ61L) % inhibition at 10 μM (***)
Experimental: (§1) The cell growth inhibitory activity of the compound of the present invention on human culture cells having active-type mutation in Ras was evaluated by the below-mentioned method using suspension cancer cells {acute lymphoblastic leukemia cells CCRF-CEM (K-RasG12D), promyelocytic leukemia cells HL60 (N-RasQ61L), acute lymphoblastic leukemia cells MOLT4 (N-RasG12C), and small cell lung cancer cells SHP77 (K-RasG12V)} and adherent cancer cells {large bowel cancer cells SW480 (K-RasG12V) and large bowel cancer cell SW620 (K-RasG12V)}.
(Case of suspension cells) The cells suspended in a medium containing 0.5% (v/v) fetal bovine serum (FBS) and each compound solution (final DMSO concentration: 1%) were seeded on a 96-well plate (2 to 4×10^4 cells/well), and the resulting mixture was then cultured at 37° C. in the presence of 5% CO2 for 72 hours.
(§2) Thereafter, the number of viable cells was measured using Cell Counting Reagent (Nacalai Tesque) in accordance with the manufacturer's instructions. Inhibition by the test compound was determined according to the following equation: […]

[2] = test system: large bowel cancer cell SW620 (K-RasG12V); experiment: Cell growth inhibition, adherent cells SW620; format: cell-based; conditions: Homo sapiens, SW-620, 72 hours; for inhibition at 1 µM: read-out: SW620 (KRasG12V) % inhibition at 1 μM; for inhibition at 3.2 µM: read-out: SW620 (KRasG12V) % inhibition at 3.2 μM (***)
Experimental: as §1
(Case of adherent cells) The cells suspended in a medium containing 10% FBS (1 to 2×10^4 cells/well) were seeded on a 96-well plate, and were then cultured at 37° C. in the presence of […]. Thereafter, the medium was exchanged with a medium containing […], to which each compound solution (final DMSO concentration: […]) had been added, and the cells were then cultured at 37° C. in the presence of […] for 72 hours.
as §2

[3] = target: GTPγS-bound human HRasG12V / human c-Raf-1 Ras binding domain (RBD) (Homo sapiens (Human), UniProt P01112, G12V); experiment: Ras-Raf binding inhibition ELISA
Experimental: The in vitro Ras-Raf binding inhibitory activity of the compound of the present invention was evaluated by an ELISA method (Enzyme-Linked ImmunoSorbent Assay) described below.
Ras and Raf used upon the evaluation were purified and activated by the following method.
Using a pGEX6P-1 vector (GE Healthcare), human HRasG12V (full length, 1-189 amino acid residues) and human c-Raf-1 Ras binding domain (RBD) (50-131 amino acid residues) were each allowed to express as a fusion body with glutathione S-transferase (GST) in E. coli.
GST-HRasG12V-expressing cells were subjected to ultrasonication in a buffer {50 mM Tris-HCl pH 7.4, 150 mM NaCl, 5 mM MgCl2, 1 mM ethylenediaminetetraacetic acid (EDTA), 1 mM dithiothreitol (DTT), 10% glycerol, and 1% Triton-X100}, and were then centrifuged at 100,000×g for 30 minutes, so as to collect the supernatant as a Ras protein fraction. HRasG12V in the supernatant was immobilized on a glutathione-agarose resin, and GST was then cleaved with PreScission Protease (GE Healthcare) for purification. The obtained HRasG12V was mixed with guanosine 5′-O-[gamma-thio]triphosphate trisodium salt (GTPTS) of 1000 times higher concentration at 30° C. for 1 hour, and thereafter, 20 mM MgCl2 (final concentration) was added to stop the reaction and collect the GTPgS-loaded HRasG12V as a product.
On the other hand, GST-c-Raf-1 RBD-expressing cells were subjected to ultrasonication in the same buffer as described above, and were then centrifuged at 100,000×g for 30 minutes, so as to collected the supernatant as a GST-c-Raf-1 RBD protein fraction.
The in vitro Ras-Raf binding inhibitory activity of the compound of the present invention was evaluated by an ELISA method described below.
GST-c-Raf-1 RBD diluted with a Ras-Raf binding buffer (50 mM Tris-HCl pH7.4, 150 mM NaCl, 5 mM MgCl2, 1 mM EDTA, and 1% Triton-X100) was added to each well of a glutathione-coated 96-well plate (Thermo Fisher Scientific.), and was incubated at 30° C. for 1 hour, to immobilize Raf on the well. The unbound free Raf was eliminated by washing the well with the Ras-Raf binding buffer three times. Subsequently, GTPTS-bound HRasG12V diluted with the Ras-Raf binding buffer and each compound solution (final DMSO concentration: 10%) were applied to each well, and the resulting mixture was then incubated at 30° C. for 1 hour, so that Ras and Raf were allowed to bind to each other. Thereafter, the plate was washed with the Ras-Raf binding buffer twice, and was then subjected to a blocking treatment at room temperature for 20 minutes, using TBS-Tween {10 mM Tris-HCl pH 7.4, 150 mM NaCl, and 0.05% (w/v) Tween-20}-5% (w/v) bovine serum albumin (BSA). After that, an anti-HRas antibody (C-20, Santa Cruz) or an anti-HRas antibody (259, Santa Cruz), which had been 1000 times diluted with TBS-Tween-5% BSA, was added to the reaction mixture, and incubated at room temperature for 1 hours. After the treatment with the primary antibody, the plate was washed with TBS-Tween-5% BSA three times, and a horseradish peroxidase-labeled secondary antibody against rabbit immunoglobulin G (GE Healthcare) of 1000 times diluted with TBS-Tween-5% BSA, was added to the plate, followed by incubation at room temperature for 1 hour. After the treatment with the secondary antibody, the plate was washed with TBS-Tween-5% BSA three times, and a substrate solution (TMB) was then added to the plate, followed by incubation at room temperature for 15 minutes for coloration. Finally, 2 M H2SO4 was added to stop color development (coloration reaction kit: Nacalai Tesque). The absorbance at 450 nm (OD450) was measured, so that the color intensity was quantified. Inhibition by the test compound was determined according to the following equation: […]
IC50 (*) in which the anti-HRas antibody (259, Santa Cruz) was used

[4] = anti-HRas antibody C-20, read-out: ELISA IC50 (μM): 1st Ab_C-20
[5] = anti-HRas antibody 259 (*), read-out: ELISA IC50 (μM): 1st Ab_259 (*)

GTPγS-bound human HRasG12V / human c-Raf-1 Ras binding domain (RBD), sequence (P01112 whole entry G12V, the tested form may be a part): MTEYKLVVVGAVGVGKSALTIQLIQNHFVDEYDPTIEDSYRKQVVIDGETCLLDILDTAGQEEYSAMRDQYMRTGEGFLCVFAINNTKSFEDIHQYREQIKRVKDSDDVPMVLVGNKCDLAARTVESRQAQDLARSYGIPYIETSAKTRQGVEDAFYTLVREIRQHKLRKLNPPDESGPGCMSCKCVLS

Compound | inhibition at 1 µM [2] | inhibition at 1 µM [3] | IC50 [3, 4] | inhibition at 3.2 µM [2] | other results
CC(=O)N1C(=Cc2cc(-c3cccnc3-c3ccccc3)c3cc(C(=O)N4CCOCC4)ccc3n2)C(=O)c2ccccc21 [Example 94, 1-acetyl-2-((6-(morpholine-4-carbonyl)-4-(2-phenylpyridin-3-yl)quinolin-2-yl)-methylene)indolin-3-one] | 82% |  |  |  | inhibition at 3.3 µM [1]: 96%
CC(=O)N1/C(=C\c2cc(-c3cnn(C)c3)c3cc(C(=O)N4CCOCC4)ccc3n2)C(=O)c2ccccc21 [Example 171, (Z)-1-acetyl-2-((4-(1-methyl-1H-pyrazol-4-yl)-6-(morpholine-4-carbonyl)quinolin-2-yl)methylene)-indolin-3-one] |  | 72% | 0.4 µM | 79.5% | 
CC(=O)N1/C(=C\c2cc(-c3ccccc3-c3ccccc3)c3cc(C(=O)N4CCOCC4)ccc3n2)C(=O)c2ccccc21 [Example 89, (Z)-2-((4-([1,1′-biphenyl]-2-yl)-6-(morpholine-4-carbonyl)quinolin-2-yl)methylene)-1-acetylindolin-3-one] | 71% |  | 0.5 µM |  | inhibition at 1.1 µM [1]: 95%
CC(=O)N1/C(=C\c2cc(-c3ccccc3-c3ccccc3)c3cc(C(=O)O)ccc3n2)C(=O)c2ccccc21 [Example 128, (Z)-4-([1,1′-biphenyl]-2-yl)-2-((1-acetyl-3-oxo-indolin-2-ylidene)-methyl)quinoline-6-carboxylic acid] | 70% |  | 0.49 µM |  | inhibition at 3.3 µM [1]: 96%
CC(=O)N1/C(=C\c2cc(-c3cn[nH]c3)c3cc(C(=O)N4CCOCC4)ccc3n2)C(=O)c2ccccc21 [Example 170, (Z)-1-acetyl-2-((6-(morpholine-4-carbonyl)-4-(1H-pyrazol-4-yl)quinolin-2-yl)-methylene)indolin-3-one] |  | 66.8% | 0.5 µM | 41.6% | 
CC(=O)N1/C(=C\c2cc(-c3ccccc3-c3ccccc3)c3cc(C(N)=O)ccc3n2)C(=O)c2ccccc21 [Example 141, (Z)-4-([1,1′-biphenyl]-2-yl)-2-((1-acetyl-3-oxo-indolin-2-ylidene)-methyl)quinoline-6-carboxamide] |  | 46.2% | 1.2 µM | 91.3% | inhibition at 3.2 µM [1]: 94.6%
CC(=O)N1/C(=C\c2cc(-c3ncn(C)n3)c3cc(C(=O)N4CCOCC4)ccc3n2)C(=O)c2ccccc21 [Example 188, (Z)-1-acetyl-2-((4-(1-methyl-1H-1,2,4-triazol-3-yl)-6-(morpholine-4-carbonyl)quinolin-2-yl)methylene)-indolin-3-one] |  | 53.7% | 0.9 µM | 79.3% | 
CC(=O)N1/C(=C\c2ccc3cc(CN4CCN(C5COC5)CC4)ccc3n2)C(=O)c2ccccc21 [Example 74, (Z)-1-acetyl-2-((6-((4-(oxetan-3-yl)piperazin-1-yl)methyl)quinolin-2-yl)methylene)-indolin-3-one] |  |  |  |  | IC50 [3, 5]: 0.71 µM; inhibition at 10 µM [1]: 99%
CC(=O)N1/C(=C\c2cc(-c3cccc(-c4ccccc4)c3)c3cc(C(=O)N4CCOCC4)ccc3n2)C(=O)c2ccccc21 [Example 88, (Z)-2-((4-([1,1′-biphenyl]-3-yl)-6-(morpholine-4-carbonyl)quinolin-2-yl)methylene)-1-acetylindolin-3-one] | 46% |  | 0.98 µM |  | inhibition at 3.3 µM [1]: 89%
CC(=O)N1/C(=C\c2cc(-c3ccccc3-c3ccccc3)c3cc(CNC4CCOCC4)ccc3n2)C(=O)c2ccccc21 [Example 143, (Z)-2-((4-([1,1′-biphenyl]-2-yl)-6-(((tetrahydro-2H-pyran-4-yl)amino)-methyl)quinolin-2-yl)methylene)-1-acetylindolin-3-one] |  | 44.3% | 0.6 µM | 79.3% | inhibition at 3.2 µM [1]: 97.2%
CC(=O)N1/C(=C\c2ccc3cc(/C=C/C(=O)N4CCN(C5COC5)CC4)ccc3n2)C(=O)c2ccccc21 [Example 78] |  |  |  |  | IC50 [3, 5]: 0.93 µM; inhibition at 10 µM [1]: 92%
CC(=O)N1/C(=C\c2cc(-c3ccccc3-c3ccccc3)c3cc(C(=O)N4CCN(C5COC5)CC4)ccc3n2)C(=O)c2ccccc21 [Example 95, (Z)-2-((4-([1,1′-biphenyl]-2-yl)-6-(4-(oxetan-3-yl)-piperazine-1-carbonyl)quinolin-2-yl)methylene)-1-acetylindolin-3-one] | 70% |  | 0.44 µM |  | inhibition at 1.1 µM [1]: 88%
CC(=O)N1/C(=C/c2cc(-c3ccnc4ccccc34)c3cc(C(=O)N4CCOCC4)ccc3n2)C(=O)c2ccccc21 [Example 117, (E)-1-acetyl-2-((6-(morpholine-4-carbonyl)-[4,4′-biquinolin]-2-yl)-methylene)indolin-3-one] | 66% |  |  |  | inhibition at 3.3 µM [1]: 94%
CC(=O)N1/C(=C\c2cc(-c3cnn(C)c3)c3cc(CNC4CCOCC4)ccc3n2)C(=O)c2ccccc21 [Example 205, (Z)-1-acetyl-2-((4-(1-methyl-1H-pyrazol-4-yl)-6-(((tetrahydro-2H-pyran-4-yl)amino)-methyl)quinolin-2-yl)methylene)-indolin-3-one] |  | 66.3% | 0.7 µM | 37% | 
CC(=O)N1/C(=C\c2nc3ccc(C(=O)N4CC(C)OC(C)C4)cc3s2)C(=O)c2ccccc21 (stereo not drawn) [Example 100, (Z)-1-acetyl-2-((6-(2,6-dimethyl-morpholine-4-carbonyl)benzo [d]thiazol-2-yl)-methylene)indolin-3-one] |  |  |  |  | IC50 [3, 5]: 0.77 µM; inhibition at 10 µM [1]: 87%
